Test results published in ChEMBL document CHEMBL1129887, “Dicarboxylic acid inhibitors of phospholipase A2” (Bioorg Med Chem Lett, 1997).

How the values were obtained:
[1] = tested on: Mus musculus; assay: (§1) Antiinflammatory activity of compound was measured in the phorbol-ester induced mouse chronic ear edema assay; format: functional
[2] = tested on: Mus musculus; assay: as §1; format: functional; remark: listed apart in the source
[3] = molecular target: T1, Phospholipase A2, membrane associated (Homo sapiens, UniProt P14555); assay: Compound was measured for the inhibition of human platelet PLA2 (HP-PLA2)
T1 sequence (P14555 whole entry): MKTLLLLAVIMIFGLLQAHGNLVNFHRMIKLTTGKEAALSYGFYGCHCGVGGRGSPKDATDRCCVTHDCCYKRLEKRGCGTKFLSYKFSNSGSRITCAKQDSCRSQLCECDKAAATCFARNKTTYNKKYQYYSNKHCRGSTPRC

| Compound | ED50 [1] | ED50 [2] | IC50 [3] |
| --- | --- | --- | --- |
| C/C(=C\C(=O)O)C(=Cc1ccc2cc(OCCCc3ccccc3)ccc2c1)c1cccc(C(=O)O)c1 | 90 ug ear-1 dose-1 | 30 ug ear-1 dose-1 | 17 µM |
| CC1=C(/C=C/C(C)=C/C=C(/C(C)=C/C(=O)O)c2cccc(C(=O)O)c2)C(C)(C)CCC1 |  | 160 ug ear-1 dose-1 |  |
| C/C(=C\C(=O)O)C(=CCCc1ccc(C23C[C@H]4C[C@@H](C2)C[C@@H](C3)C4)c(O)c1)c1cccc(C(=O)O)c1 |  |  | 8 µM |
| C/C(=C\C(=O)O)C(=Cc1ccc2cc3c(cc2c1)C(C)(C)CCC3(C)C)c1cccc(C(=O)O)c1 |  | 9.37 ug ear-1 dose-1 | 17 µM |
| C/C(=C\C(=O)O)C(=CCCc1ccc2cc3c(cc2c1)C(C)(C)CCC3(C)C)c1cccc(C(=O)O)c1 |  | 89 ug ear-1 dose-1 | 2 µM |
| CCCCCCCCCCOc1ccc(C=C(/C(C)=C/C(=O)O)c2cccc(C(=O)O)c2)cc1 |  |  | 7 µM |
| CCCCCCCCCCOc1ccc2cc(C=C(/C(C)=C/C(=O)O)c3cccc(C(=O)O)c3)ccc2c1 |  | 31 ug ear-1 dose-1 | 14 µM |
| C/C(=C\C(N)=O)C(=Cc1ccc2cc3c(cc2c1)C(C)(C)CCC3(C)C)c1cccc(C(N)=O)c1 |  | 186 ug ear-1 dose-1 | 4 µM |
| C/C(=C\C(=O)O)C(=Cc1ccc2cc(OCc3ccccc3)c(OCc3ccccc3)cc2c1)c1cccc(C(=O)O)c1 |  | 208 ug ear-1 dose-1 |  |
